Test systems include Escherichia coli E423-17; Escherichia coli PFH12; Escherichia coli PFL6; Salmonella enterica; Escherichia coli PFH1; Staphylococcus xylosus; Escherichia coli BL21; Pseudomonas aeruginosa; Citrobacter koseri; Escherichia coli PFH13; Escherichia coli JM109; Botrytis cinerea; Cladosporium herbarum; Alternaria alternata; Staphylococcus aureus; Escherichia coli 363.
Common to all, as to assay: ≥ marks a high value that may be exact or a test limit, other limits are often not marked, values filed in µg/mL are converted to µM
The subject of test [1] is Pseudomonas aeruginosa E411-17.
In test [2] the test system is Escherichia coli ATCC 25922.
Test [3] concerns Staphylococcus aureus USA 300.
Test [4] concerns Acinetobacter baumannii B28-16.
Test [5] relates to Staphylococcus aureus ATCC 25923.
Test [6] deals with Pseudomonas aeruginosa ATCC 27853.
Test [7] concerns Klebsiella pneumoniae E406-17.
Test [8] has as its system Staphylococcus aureus ATCC BAA-39.
Test [9] deals with Staphylococcus aureus ATCC 43300.
For test [10], the system named is Klebsiella pneumoniae ATCC 13883.
In test [11] the test system is Listeria monocytogenes ATCC 19115.
Test [12] relates to Salmonella enterica subsp. enterica serovar Enteritidis ATCC 13076.
The subject of test [13] is Salmonella typhimurium CCRC 12947.
Test [14] has as its system Bacillus cereus ATCC 11778.
In test [15] the test system is Listeria monocytogenes ATCC 15313.
For test [16], the system named is Staphylococcus aureus CCRC 15211.
Test [17] has as its system Streptococcus alactolyticus.
Test [18] has as its system Candida albicans ATCC 10231.
In test [19] the test system is Klebsiella pneumoniae CCRC 10694.
Test [20] deals with Staphylococcus aureus CCRC 12652.
In test [21] the test system is Vibrio parahaemolyticus CCRC 10806.
Test [22] concerns Enterococcus faecalis ATCC 29212.
Test [23] concerns Pseudomonas syringae pv. syringae DSM 10604.
In test [24] the test system is Pseudomonas corrugata DSM 7228.
For test [25], the system named is Clavibacter michiganensis subsp. michiganensis DSM 46294.
Test [26] deals with Pectobacterium carotovorum subsp. carotovorum DSM 30168.
Test [27] deals with Pseudomonas syringae pv. tomato DC3000.
Test [28] deals with Xanthomonas vesicatoria DSM 50861.
The subject of test [29] is Klebsiella pneumoniae ATCC 10031.
In test [30] the test system is Salmonella enterica subsp. enterica serovar Typhimurium ATCC 14028.
In test [31] the test system is Pseudomonas aeruginosa ATCC 13388.
Test [32] relates to Escherichia coli ATCC 11219.
Test [33] deals with Staphylococcus aureus ATCC 6538.

The values that follow come from DBAASP.

Values after ≈ are worked out from the molar mass of the structure shown. Values joined by “and” are separate entries in the source; they are usually repeats but may differ in a detail not shown here. Identical values can stand only once.

Regarding `NC(=O)[C@H](CCCN=C(N)N)NC(=O)[C@H](Cc1c[nH]c2ccccc12)NC(=O)[C@H](Cc1c[nH]c2ccccc12)NC(=O)[C@H](CCCN=C(N)N)NC(=O)[C@H](Cc1c[nH]c2ccccc12)NC(=O)[C@H](Cc1c[nH]c2ccccc12)NC(=O)[C@H](CCCN=C(N)N)NC(=O)[C@@H](N)CCCN=C(N)N` [RRWWRWWR], the minimum inhibitory concentration (MIC) in test [1] was 8 µM (≈ 11.1 µg/mL); in test [2] it was 5.41 µM (≈ 7.49 µg/mL); in [3], 5.66 µM (≈ 7.84 µg/mL); in the test with Escherichia coli E423-17, 8 µM (≈ 11.1 µg/mL); in test [4], not below 32 µM; in test [5], 1.8 µM (≈ 2.5 µg/mL). Besides, the MIC was 3.6 µM (≈ 5 µg/mL) in test [6] and not below 32 µM in test [7].

`CC[C@H](C)[C@H](NC(=O)[C@H](CCCCN)NC(=O)[C@H](CCCN=C(N)N)NC(=O)[C@H](CC(C)C)NC(=O)[C@H](Cc1ccccc1)NC(=O)[C@H](CCCN=C(N)N)NC(=O)CNC(=O)[C@H](Cc1ccccc1)NC(=O)[C@H](CCCN=C(N)N)NC(=O)CNC(=O)[C@H](CCCN=C(N)N)NC(=O)[C@H](CCC(N)=O)NC(=O)[C@@H](NC(=O)[C@@H](N)CC(C)C)C(C)C)C(=O)N[C@@H](CCCN=C(N)N)C(=O)N[C@@H](CCCN=C(N)N)C(=O)N[C@@H](Cc1ccccc1)C(=O)N[C@@H](CCCN=C(N)N)C(=O)O` [LVQRGRFGRFLRKIRRFR]: the MIC in test [2] is 4 µM and 5.66 µM; in [8], 2 µM and 2.83 µM; in test [9] it was 2 µM (≈ 4.72 µg/mL); in test [5], 2 µM (≈ 4.72 µg/mL); in test [10] it was 2 µM (≈ 4.72 µg/mL); in test [11] it was 2 µM (≈ 4.72 µg/mL). The minimum inhibitory concentration (MIC) in [12] was 2 µM (≈ 4.72 µg/mL).

`CC[C@H](C)[C@H](N)C(=O)N[C@@H](CC(N)=O)C(=O)N[C@@H](CC(C)C)C(=O)N[C@@H](CCCCN)C(=O)N[C@@H](C)C(=O)N[C@H](C(=O)N[C@@H](C)C(=O)N[C@@H](C)C(=O)N[C@@H](CC(C)C)C(=O)N[C@@H](C)C(=O)N[C@@H](CCCCN)C(=O)N[C@@H](CCCCN)C(=O)N[C@@H](CC(C)C)C(=O)N[C@@H](Cc1ccccc1)C(N)=O)[C@@H](C)CC` [INLKAIAALAKKLF]: the MIC in the test on Escherichia coli PFH12 stood at 3.74 µM (≈ 5.65 µg/mL); in test [13], 21.1 µM (≈ 32 µg/mL); in the test with Escherichia coli PFL6, 5.28 µM (≈ 7.99 µg/mL); in test [14], 8 µM (≈ 12.1 µg/mL); against Salmonella enterica it was 10.6 µM (≈ 16 µg/mL); against Escherichia coli PFH1, 3.74 µM (≈ 5.65 µg/mL). The MIC in test [15] was 4 µM (≈ 6.05 µg/mL); against Staphylococcus xylosus, 0.991 µM (≈ 1.5 µg/mL); against Escherichia coli BL21, 2.64 µM (≈ 4 µg/mL); with Pseudomonas aeruginosa, 63.4 µM (≈ 95.9 µg/mL); in test [5] it was 4 µM (≈ 6.05 µg/mL); in test [6] it was not below 32 µM. In addition, the MIC is 21.1 µM (≈ 32 µg/mL) in [16]; 5.28 µM (≈ 7.99 µg/mL) in test [17]; 4 µM (≈ 6.05 µg/mL) in [12]; 4 µM (≈ 6.05 µg/mL) in [18]; 21.1 µM (≈ 32 µg/mL) in [19]; 2.64 µM (≈ 4 µg/mL) in the test on Citrobacter koseri. For the same compound, the minimal inhibitory concentration (MIC) in the test on Escherichia coli PFH13 was 3.74 µM (≈ 5.65 µg/mL); in the test with Escherichia coli JM109, 5.28 µM (≈ 7.99 µg/mL); in test [20], 10.6 µM (≈ 16 µg/mL); in [21], 10.6 µM (≈ 16 µg/mL); in test [22], not below 32 µM.

`CC[C@H](C)[C@H](NC(=O)[C@H](C)NC(=O)[C@H](CCCCN)NC(=O)[C@H](CCCCN)NC(=O)[C@H](CC(C)C)NC(=O)[C@H](Cc1ccccc1)NC(=O)[C@H](Cc1cnc[nH]1)NC(=O)[C@H](C)NC(=O)[C@H](CC(C)C)NC(=O)[C@H](C)N)C(=O)N[C@@H](CCCCN)C(=O)N[C@@H](CCCCN)C(N)=O` [ALAHFLKKAIKK]: the MIC is 3.66 µM (≈ 5 µg/mL) in test [23]; 14.6 µM (≈ 20 µg/mL) in test [24]; not below 73.1 µM against Botrytis cinerea; 29.2 µM (≈ 40 µg/mL) in test [25]; 29.2 µM (≈ 40 µg/mL) in test [26]; 7.31 µM (≈ 9.99 µg/mL) in test [27]. Besides, the MIC against Cladosporium herbarum is not below 73.1 µM; in the test on Alternaria alternata, not below 73.1 µM; in test [28], 29.2 µM (≈ 40 µg/mL).

For the compound `CC(C)C[C@H](NC(=O)[C@H](CCCN=C(N)N)NC(=O)[C@H](CCCN=C(N)N)NC(=O)[C@H](CC(C)C)NC(=O)[C@H](CC(C)C)NC(=O)[C@H](CCCN=C(N)N)NC(=O)[C@H](CCCN=C(N)N)NC(=O)[C@H](CC(C)C)NC(=O)[C@H](CC(C)C)NC(=O)[C@H](CCCN=C(N)N)NC(=O)[C@H](CCCN=C(N)N)NC(=O)[C@H](CC(C)C)NC(=O)[C@H](CCCN=C(N)N)NC(=O)[C@@H](N)CCCN=C(N)N)C(=O)N[C@@H](CCCN=C(N)N)C(=O)N[C@@H](CCCN=C(N)N)C(N)=O` [RRLRRLLRRLLRRLRR], the values for the MIC against Staphylococcus aureus and in the test with Escherichia coli 363 were 9 µM (≈ 20.3 µg/mL) and not below 50 µM, respectively.

Take `CC[C@H](C)[C@H](NC(=O)CN)C(=O)N[C@@H](Cc1cnc[nH]1)C(=O)N[C@@H](CC(=O)O)C(=O)N[C@H](C(=O)N[C@@H](CC(C)C)C(=O)N[C@@H](CCCCN)C(=O)N[C@@H](Cc1ccc(O)cc1)C(=O)NCC(=O)N[C@@H](CCCCN)C(=O)N[C@@H](CCCN=C(N)N)C(=O)N[C@@H](CO)C(N)=O)[C@@H](C)CC` [GIHDILKYGKRS]: the MIC in [29] turned out to be 10 µM (≈ 13.9 µg/mL); in test [30] it was 20 µM (≈ 27.7 µg/mL); in test [31], 20 µM (≈ 27.7 µg/mL); in test [32], 10 µM (≈ 13.9 µg/mL); in test [33], 10 µM (≈ 13.9 µg/mL).
